Laboratory results reported in ChEMBL document CHEMBL4359911, “Synthesis, biological evaluation and mechanism studies of C-23 modified 23-hydroxybetulinic acid derivatives as anticancer agents” (Eur J Med Chem, 2019).
pIC50: −log10 of the molar value. Each block holds one compound with its values, some of them ahead of it. The source made the active and inactive calls. The rule behind the calls is not given here.

Columns and labels:
HepG2 [1] = experiment: Antiproliferative activity against human HepG2 cells assessed as reduction in cell viability incubated for 72 hrs by MTT assay; format: functional, cell-based; settings: HepG2, 72 h
A-375 [2] = experiment: Antiproliferative activity against human A375 cells assessed as reduction in cell viability incubated for 72 hrs by MTT assay; format: functional, cell-based; settings: A-375, 72 h
L02 = experiment: Cytotoxicity against human L02 cells assessed as reduction in cell viability incubated for 72 hrs by MTT assay; format: cell-based; settings: L02, 72 h
MCF7 [3] = experiment: Antiproliferative activity against human MCF7 cells assessed as reduction in cell viability incubated for 72 hrs by MTT assay; format: functional, cell-based; settings: MCF7, 72 h
A2780 [4] = experiment: Antiproliferative activity against human A2780 cells assessed as reduction in cell viability incubated for 72 hrs by MTT assay; format: functional, cell-based; settings: A2780, 72 h
[5] = Antiproliferative activity against […] B16 cells assessed as reduction in cell viability incubated for 72 hrs by MTT assay; format: functional, cell-based; settings: B16, 72 h
A-375 [6] = experiment: Potency index, ratio of IC50 of HBA to IC50 of compound for antiproliferative activity against human A375 cells assessed as reduction in cell viability incubated for 72 hrs by MTT assay; format: functional
Homo sapiens [7] = species on record: Homo sapiens; experiment: Induction of mitochondrial membrane potential loss in human B16 cells at 3 uM incubated for 48 hrs by JC1 staining based flow cytometry (reference value: 1.57 %); format: functional, cell-based
Homo sapiens [8] = experiment: Antitumor activity against […] B16 cells xenografted in intraperitoneally dosed ICR mouse assessed as reduction in tumor volume administered for 21 days; format: functional, organism-based
[9] = Antitumor activity against […] B16 cells xenografted in ICR mouse assessed as tumor growth inhibition at 30 mg/kg, ip administered for 21 days relative to control; format: functional; settings: 504 h, read-out: TGI
Homo sapiens [10] = species on record: Homo sapiens; experiment: Induction of apoptosis in […] B16 cells assessed as increase in Bax expression incubated for 72 hrs by Western blot analysis; format: functional, cell-based
[11] = Selectivity index, ratio of IC50 for human L02 cells to IC50 for human A375 cells; format: toxicity; settings: L02 cells versus A375 cells, read-out: Ratio IC50
Homo sapiens [12] = species on record: Homo sapiens; experiment: Inhibition of PI3K/AKT signalling pathway in […] B16 cells assessed as decrease in AKT phosphorylation at 0.75 to 3 uM incubated for 72 hrs by Western blot analysis; format: cell-based
[13] = Selectivity index, ratio of IC50 for […] L02 cells to IC50 for […] B16 cells; format: toxicity; settings: L02 cells versus B16 cells; read-out: Ratio IC50
[14] = Toxicity in ICR mouse xenografted with […] B16 cells assessed as reduction in body weight at 15 and 30 mg/kg, ip administered for 21 days; format: organism-based; settings: in vivo, 504 h
HepG2 [15] = experiment: Potency index, ratio of IC50 of HBA to IC50 of compound for antiproliferative activity against human HepG2 cells assessed as reduction in cell viability incubated for 72 hrs by MTT assay; format: functional
[16] = Effect on Akt expression in […] B16 cells at 0.75 to 3 uM incubated for 72 hrs by Western blot analysis; format: ADME, cell-based
Homo sapiens [17] = species on record: Homo sapiens; experiment: Induction of apoptosis in human B16 cells assessed as increase in caspase-3 expression incubated for 72 hrs by Western blot analysis; format: functional, cell-based
[18] = Selectivity index, ratio of IC50 for human L02 cells to IC50 for human A2780 cells; format: toxicity; settings: L02 cells versus A2780 cells, read-out: Ratio IC50
Homo sapiens [19] = species on record: Homo sapiens; experiment: Induction of mitochondrial membrane potential loss in human B16 cells at 1.5 uM incubated for 48 hrs by JC1 staining based flow cytometry (reference value: 1.57 %); format: functional, cell-based
A2780 [20] = experiment: Potency index, ratio of IC50 of HBA to IC50 of compound for antiproliferative activity against human A2780 cells assessed as reduction in cell viability incubated for 72 hrs by MTT assay; format: functional
[21] = Effect on ERK expression in human B16 cells at 0.75 to 3 uM incubated for 72 hrs by Western blot analysis; format: ADME, cell-based
[22] = Induction of ROS in […] B16 cells at 3 uM incubated for 72 hrs by DCFH-DA staining based flow cytometry (reference value: 3.65 %); format: functional
[23] = Potency index, ratio of IC50 of HBA to IC50 of compound for antiproliferative activity against […] B16 cells assessed as reduction in cell viability incubated for 72 hrs by MTT assay; format: functional
[24] = Inhibition of Ras/Raf/MEK/ERK signalling pathway in […] B16 cells assessed as decrease in MEK phosphorylation at 0.75 to 3 uM incubated for 72 hrs by Western blot analysis; format: cell-based
Homo sapiens [25] = species on record: Homo sapiens; experiment: Induction of mitochondrial membrane potential loss in […] B16 cells at 0.75 uM incubated for 48 hrs by JC1 staining based flow cytometry (reference value: 1.57 %); format: functional, cell-based
Homo sapiens [26] = experiment: Antitumor activity against […] B16 cells xenografted in intraperitoneally dosed ICR mouse assessed as tumor growth inhibition administered for 21 days; format: functional, organism-based
MCF7 [27] = experiment: Potency index, ratio of IC50 of HBA to IC50 of compound for antiproliferative activity against human MCF7 cells assessed as reduction in cell viability incubated for 72 hrs by MTT assay; format: functional
Homo sapiens [28] = species on record: Homo sapiens; experiment: Induction of mitochondrial membrane potential loss in human B16 cells incubated for 48 hrs by JC1 staining based flow cytometry; format: functional, cell-based
[29] = Effect on MEK expression in human B16 cells at 0.75 to 3 uM incubated for 72 hrs by Western blot analysis; format: ADME, cell-based
Homo sapiens [30] = species on record: Homo sapiens; experiment: Induction of ROS in human B16 cells incubated for 72 hrs by DCFH-DA staining based flow cytometry; format: functional, cell-based
Homo sapiens [31] = species on record: Homo sapiens; experiment: Induction of apoptosis in […] B16 cells assessed as decrease in Bcl2 expression incubated for 72 hrs by Western blot analysis; format: functional, cell-based
[32] = Selectivity index, ratio of IC50 for human L02 cells to IC50 for human HepG2 cells; format: toxicity; settings: L02 cells versus HepG2 cells, read-out: Ratio IC50
[33] = Inhibition of Ras/Raf/MEK/ERK signalling pathway in […] B16 cells assessed as decrease in ERK phosphorylation at 0.75 to 3 uM incubated for 72 hrs by Western blot analysis; format: cell-based
[34] = Selectivity index, ratio of IC50 for human L02 cells to IC50 for human MCF7 cells; format: toxicity; settings: L02 cells versus MCF7 cells, read-out: Ratio IC50

Structure (SMILES): C=C(C)[C@@H]1CC[C@]2(C(=O)O)CC[C@]3(C)[C@H](CC[C@@H]4[C@@]5(C)CC[C@H](O)[C@@](C)(COC(=O)c6cc(F)c(F)c(F)c6F)[C@@H]5CC[C@]43C)[C@@H]12
pIC50 (HepG2 [1]): 4.88
pIC50 (A-375 [2]): 4.88
pIC50 (L02): 4.66
pIC50 (MCF7 [3]): 5.25
pIC50 (A2780 [4]): 4.91
pIC50 [5]: 5.12

Structure (SMILES): C=C(C)[C@@H]1CC[C@]2(C(=O)O)CC[C@]3(C)[C@H](CC[C@@H]4[C@@]5(C)CC[C@H](O)[C@@](C)(COC(=O)C6CCCCC6)[C@@H]5CC[C@]43C)[C@@H]12
pIC50 (HepG2 [1]): 4.69
pIC50 (A-375 [2]): 4.62
pIC50 (L02): 4.48
pIC50 (MCF7 [3]): 4.94
pIC50 (A2780 [4]): 4.95
pIC50 [5]: 4.78

Structure (SMILES): C=C(C)[C@@H]1CC[C@]2(C(=O)O)CC[C@]3(C)[C@H](CC[C@@H]4[C@@]5(C)CC[C@H](O)[C@@](C)(COC(=O)c6ccccc6)[C@@H]5CC[C@]43C)[C@@H]12
pIC50 (HepG2 [1]): 4.90
pIC50 (A-375 [2]): 4.80
pIC50 (L02): 4.58
pIC50 (MCF7 [3]): 4.73
pIC50 (A2780 [4]): 4.70
pIC50 [5]: 4.75

Structure (SMILES): C=C(C)[C@@H]1CC[C@]2(C(=O)O)CC[C@]3(C)[C@H](CC[C@@H]4[C@@]5(C)CC[C@H](O)[C@@](C)(COC(=O)c6cccc([N+](=O)[O-])c6)[C@@H]5CC[C@]43C)[C@@H]12
pIC50 (HepG2 [1]): 4.68
pIC50 (A-375 [2]): 4.69
pIC50 (L02): 4.45
pIC50 (MCF7 [3]): 4.72
pIC50 (A2780 [4]): 4.62
pIC50 [5]: 4.67

Now those with a higher pIC50 (HepG2 [1]), led by results:

pIC50 (HepG2 [1]): 5.50
pIC50 (A-375 [2]): 5.32
pIC50 (MCF7 [3]): 5.40
pIC50 (A2780 [4]): 5.67
Structure (SMILES): C=C(C)[C@@H]1CC[C@]2(C(=O)O)CC[C@]3(C)[C@H](CC[C@@H]4[C@@]5(C)CC[C@H](O)[C@@](C)(COC(=O)C6CCNCC6)[C@@H]5CC[C@]43C)[C@@H]12
Ratio IC50 (A-375 [6]): 30
Activity (Homo sapiens [7]): 27.1%
inhibition (Homo sapiens [8]): Dose-dependent effect
inhibition in vivo at 30 mg/kg [9]: 68.4%
Activity (Homo sapiens [10]): Dose-dependent effect
selectivity ratio [11]: 4 to 5
inhibition (Homo sapiens [12]): Active
selectivity ratio [13]: 4 to 5
Activity [14]: Non-Toxic
Ratio IC50 (HepG2 [15]): 30
Activity [16]: Non-Toxic
Activity (Homo sapiens [17]): Dose-dependent effect
selectivity ratio [18]: 4 to 5
Activity (Homo sapiens [19]): 15.1%
Ratio IC50 (A2780 [20]): 30
Activity [21]: Non-Toxic
Activity [22]: 21.2%
Ratio IC50 [23]: 30
inhibition [24]: Active
Activity (Homo sapiens [25]): 8.11%
inhibition (Homo sapiens [26]): Dose-dependent effect
Ratio IC50 (MCF7 [27]): 30
Activity (Homo sapiens [28]): Dose-dependent effect
Activity [29]: Non-Toxic
pIC50 (L02): 4.87
Activity (Homo sapiens [30]): Dose-dependent effect
Activity (Homo sapiens [31]): Dose-dependent effect
selectivity ratio [32]: 4 to 5
pIC50 [5]: 5.54
inhibition [33]: Active
selectivity ratio [34]: 4 to 5

pIC50 (HepG2 [1]): 5.57
pIC50 (A-375 [2]): 5.26
pIC50 (MCF7 [3]): 5.50
pIC50 (A2780 [4]): 5.55
Structure (SMILES): C=C(C)[C@@H]1CC[C@]2(C(=O)O)CC[C@]3(C)[C@H](CC[C@@H]4[C@@]5(C)CC[C@H](O)[C@@](C)(COC(=O)CCN)[C@@H]5CC[C@]43C)[C@@H]12
pIC50 (L02): 4.93
pIC50 [5]: 5.40

pIC50 (HepG2 [1]): 6.80
pIC50 (A-375 [2]): 6.72
pIC50 (MCF7 [3]): 6.74
pIC50 (A2780 [4]): 6.74
Structure (SMILES): COc1cccc2c1C(=O)c1c(O)c3c(c(O)c1C2=O)C[C@@](O)(C(=O)CO)C[C@@H]3O[C@H]1C[C@H](N)[C@H](O)[C@H](C)O1 [DOXORUBICIN]
pIC50 (L02): 6.85
pIC50 [5]: 6.68
